Source: patent US9730940B2, “Purine inhibitors of human phosphatidylinositol 3-kinase delta” (priority 2012, dated 2017)

Each compound was assayed against PI3K-alpha (Homo sapiens (Human), UniProt P42336) (assay: HTRF PI3K biochemical assay, alpha isoform). Details: ratio PI3K-alpha IC50 value/PI3K-delta IC50 value.
Sequence of PI3K-alpha (P42336 whole entry, looked up, canonical isoform): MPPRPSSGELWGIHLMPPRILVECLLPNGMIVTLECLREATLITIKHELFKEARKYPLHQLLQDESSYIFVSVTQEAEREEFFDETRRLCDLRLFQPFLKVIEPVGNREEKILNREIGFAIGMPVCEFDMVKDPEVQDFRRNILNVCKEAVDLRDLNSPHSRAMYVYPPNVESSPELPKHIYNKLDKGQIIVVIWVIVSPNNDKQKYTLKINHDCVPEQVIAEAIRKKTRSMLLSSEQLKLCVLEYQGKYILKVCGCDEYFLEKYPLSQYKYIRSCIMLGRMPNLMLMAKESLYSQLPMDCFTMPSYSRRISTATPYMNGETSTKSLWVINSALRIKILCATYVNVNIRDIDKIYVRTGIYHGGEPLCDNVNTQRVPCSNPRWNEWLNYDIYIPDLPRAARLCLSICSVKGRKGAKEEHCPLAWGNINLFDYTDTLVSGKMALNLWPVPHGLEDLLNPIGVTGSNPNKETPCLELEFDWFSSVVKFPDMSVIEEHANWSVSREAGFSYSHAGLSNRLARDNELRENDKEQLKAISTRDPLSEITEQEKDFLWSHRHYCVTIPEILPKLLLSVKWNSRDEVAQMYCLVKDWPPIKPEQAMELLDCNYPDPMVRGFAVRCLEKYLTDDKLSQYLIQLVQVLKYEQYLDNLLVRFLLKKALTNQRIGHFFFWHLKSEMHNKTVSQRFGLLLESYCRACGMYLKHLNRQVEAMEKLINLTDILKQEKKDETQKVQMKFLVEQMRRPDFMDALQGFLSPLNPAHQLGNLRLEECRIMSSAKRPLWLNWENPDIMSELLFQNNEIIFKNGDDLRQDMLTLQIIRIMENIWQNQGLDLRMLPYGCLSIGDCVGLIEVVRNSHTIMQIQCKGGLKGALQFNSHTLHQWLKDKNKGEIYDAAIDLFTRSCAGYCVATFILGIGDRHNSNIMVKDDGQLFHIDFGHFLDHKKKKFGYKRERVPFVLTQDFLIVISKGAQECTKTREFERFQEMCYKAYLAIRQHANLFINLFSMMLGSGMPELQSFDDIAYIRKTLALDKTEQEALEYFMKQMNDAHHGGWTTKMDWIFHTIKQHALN
Sequence of PI3K-alpha (P27986 whole entry partner, looked up, canonical isoform): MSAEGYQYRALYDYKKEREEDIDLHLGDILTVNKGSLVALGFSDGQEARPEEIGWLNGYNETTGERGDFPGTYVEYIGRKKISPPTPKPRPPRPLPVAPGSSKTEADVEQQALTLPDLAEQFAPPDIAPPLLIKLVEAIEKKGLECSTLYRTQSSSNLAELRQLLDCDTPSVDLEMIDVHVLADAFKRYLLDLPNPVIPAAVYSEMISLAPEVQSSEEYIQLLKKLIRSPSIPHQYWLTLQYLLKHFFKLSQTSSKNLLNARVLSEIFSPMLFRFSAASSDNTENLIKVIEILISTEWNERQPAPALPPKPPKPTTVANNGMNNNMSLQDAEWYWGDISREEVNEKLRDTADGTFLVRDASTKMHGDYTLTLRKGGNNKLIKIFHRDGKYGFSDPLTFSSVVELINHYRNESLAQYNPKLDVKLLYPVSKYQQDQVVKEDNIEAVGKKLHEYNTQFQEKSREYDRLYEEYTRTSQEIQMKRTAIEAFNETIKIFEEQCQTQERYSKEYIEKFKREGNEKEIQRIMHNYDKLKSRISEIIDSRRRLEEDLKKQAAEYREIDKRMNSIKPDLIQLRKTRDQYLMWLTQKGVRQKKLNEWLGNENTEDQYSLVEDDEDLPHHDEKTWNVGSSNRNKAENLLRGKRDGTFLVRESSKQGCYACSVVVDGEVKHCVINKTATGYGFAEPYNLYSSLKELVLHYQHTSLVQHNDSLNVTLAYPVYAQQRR

Structure (SMILES) | Relative Selectivity versus PI3Kalpha
CCC(=O)N1CC[C@H](Oc2ncnc3c2nc(-c2cncc(N)c2)n3C)C1 [Compound 3-15, 5-(9-methyl-5-{[(3S)-1-propanoylpyrrolidin-3-yl]oxy}-9H-purin-8-yl)pyridin-3-amine] | >10
CCn1c(-c2cnc(C)nc2)nc2c(O[C@H]3CCN(C(=O)[C@H]4C[C@H]5CC[C@@H]4C5)C3)ncnc21 [Compound 2-110, 6-({(3S)-1-[(1R,2S,4S)-bicyclo[2.2.1]hept-2-ylcarbonyl]pyrrolidin-3-yl}oxy)-9-ethyl-8-(2-methylpyrimidin-5-yl)-9H-purine] | >10
CCn1ncc(-c2nc3c(O[C@H]4CCN(c5ncnc6sccc56)C4)ncnc3n2C)c1C [Compound 7-13, 8-(1-ethyl-5-methyl-1H-pyrazol-4-yl)-9-methyl-6-{[(3S)-1-thieno[2,3-d]pyrimidin-4-ylpyrrolidin-3-yl]oxy}-9H-purine] | >10
CCn1ncc(-c2nc3c(O[C@H]4CCN(C(C)c5ccccc5)C4)ncnc3n2C)c1C (stereo partly drawn) [Compound 6-1, 8-(1-ethyl-5-methyl-1H-pyrazol-4-yl)-9-methyl-6-{[(3S)-1-(1-phenylethyl)pyrrolidin-3-yl]oxy}-9H-purine] | >10
CCn1c(-c2cnc(C)nc2)nc2c(O[C@H]3CCN(c4ccccc4C)C3)ncnc21 [Compound 7-16, 9-ethyl-6-{[(3S)-1-(2-methylphenyl)pyrrolidin-3-yl]oxy}-8-(2-methylpyrimidin-5-yl)-9H-purine] | >10
CCn1c(-c2cnc(C)nc2)nc2c(O[C@H]3CCN(C(=O)OCCN(C)C)C3)ncnc21 [Compound 1-49, 2-(dimethylamino)ethyl (3S)-3-{[9-ethyl-8-(2-methylpyrimidin-5-yl)-9H-purin-6-yl]oxy}pyrrolidine-1-carboxylate] | >10
CCC(=O)N1CC[C@H](Oc2ncnc3c2nc(-c2cnc(OC)c(C)c2)n3CC)C1 [Compound 2-89, (S)-1-(3-((9-ethyl-8-(6-methoxy-5-methylpyridin-3-yl)-9H-purin-6-yl)oxy)pyrrolidin-1-yl)propan-1-one] | >10
CCn1c(N2CCC(S(C)(=O)=O)C2)nc2c(O[C@H]3CCN(C(=O)OC(C)(C)C)C3)ncnc21 (stereo partly drawn) [Compound 13-3, tert-butyl (3S)-3-({9-ethyl-8-[3-(methylsulfonyl)pyrrolidin-1-yl]-9H-purin-6-yl}oxy)pyrrolidine-1-carboxylate] | >10
CCC(=O)N1CC[C@H](Oc2ncnc3c2nc(-c2ccc(OC)c(C(F)(F)F)c2)n3C)C1 [Compound 3-35, 8-[4-methoxy-3-(trifluoromethyl)phenyl]-9-methyl-6-{[(3S)-1-propanoylpyrrolidin-3-yl]oxy}-9H-purine] | >10
CCn1ncc(-c2nc3c(O[C@H]4CCN(C(=O)c5coc(C)n5)C4)ncnc3n2C)c1C [Compound 2-27, 8-(1-ethyl-5-methyl-1H-pyrazol-4-yl)-9-methyl-6-({(3S)-1-[(2-methyl-1,3-oxazol-4-yl)carbonyl]pyrrolidin-3-yl}oxy)-9H-purine] | >10
CCn1ncc(-c2nc3c(O[C@H]4CCN(C(=O)c5ccnn5C(C)C)C4)ncnc3n2C)c1C [Compound 2-52, 8-(1-ethyl-5-methyl-1H-pyrazol-4-yl)-9-methyl-6-{[(3S)-1-{[1-(1-methylethyl)-1H-pyrazol-5-yl]carbonyl}pyrrolidin-3-yl]oxy}-9H-purine] | >10
CCn1c(-c2cnc(C)nc2)nc2c(O[C@H]3CCN(C(=O)N4CCC(C)(C)C4)C3)ncnc21 [Compound 5-19, 6-({(3S)-1-[(3,3-dimethylpyrrolidin-1-yl)carbonyl]pyrrolidin-3-yl}oxy)-9-ethyl-8-(2-methylpyrimidin-5-yl)-9H-purine] | >10
CCn1c(-c2cnc(C)nc2)nc2c(O[C@H]3CCN(C(=O)C4CC4F)C3)ncnc21 (single isomer, unassigned) [Compound 2-134, 9-ethyl-6-(((3S)-1-[((1R,2R)- or (1S,2S)-2-fluorocyclopropyl)carbonyl]pyrrolidin-3-yl}oxy)-8-(2-methylpyrimidin-5-yl)-9H-purine] | >10
CCn1ncc(-c2nc3c(O[C@H]4CCN(c5cc(-n6cc(C)cn6)ncn5)C4)ncnc3n2C)c1C [Compound 7-9, 8-(1-ethyl-5-methyl-1H-pyrazol-4-yl)-9-methyl-6-({(3S)-1-[6-(4-methyl-1H-pyrazol-1-yl)pyrimidin-4-yl]pyrrolidin-3-yl}oxy)-9H-purine] | >10
CCn1c(-c2cnc(C)nc2)nc2c(O[C@H]3CCN(C(=O)C4CC4CF)C3)ncnc21 (single isomer, unassigned) [Compound 2-132, 9-ethyl-6-{[(3S)-1-{[(1S,2S)- or (1R,2R)-2-(fluoromethyl)cyclopropyl]carbonyl}pyrrolidin-3-yl]oxy}-8-(2-methylpyrimidin-5-yl)-9H-purine] | >10
CCNC(=O)N1CC[C@H](Oc2ncnc3c2nc(-c2cnn(CC)c2C)n3C)C1 [Compound 5-7, (S)-N-ethyl-3-((8-(1-ethyl-5-methyl-1H-pyrazol-4-yl)-9-methyl-9H-purin-6-yl]oxy}pyrrolidine-1-carboxamide] | >10

Structure (SMILES) | Relative Selectivity versus PI3Kalpha
CCn1c(-c2ccc(OC)nc2)nc2c(O[C@H]3CCN(C(=O)C(C)C)C3)ncnc21 [Compound 3-50, 9-ethyl-8-(6-methoxypyridin-3-yl)-6-{[(3S)-1-(2-methylpropanoyl)pyrrolidin-3-yl]oxy}-9H-purine] | >10
CC(=O)Nc1ccc(-c2nc3c(O[C@H]4CCN(C(=O)OC(C)(C)C)C4)ncnc3n2C)cc1 [Compound 1-23, tert-butyl (3S)-3-({8-[4-(acetylamino)phenyl]-9-methyl-9H-purin-6-yl}oxy)pyrrolidine-1-carboxylate] | >10
Cc1n[nH]cc1-c1nc2c(O[C@H]3CCN(C(=O)OC(C)(C)C)C3)ncnc2n1C [Compound 1-26, tert-butyl (3S)-3-{[9-methyl-8-(3-methyl-1H-pyrazol-4-yl)-9H-purin-6-yl]oxy}pyrrolidine-1-carboxylate] | >10
CCC(=O)N1CC[C@H](Oc2ncnc3c2nc(-c2ccc4[nH]ccc4c2)n3C)C1 [Compound 3-7, (S)-1-(3-((8-(1H-indol-5-yl)-9-methyl-9H-purin-6-yl)oxy)pyrrolidin-1-yl)propan-1-one] | >10
CCc1oncc1C(=O)N1CC[C@H](Oc2ncnc3c2nc(-c2cnn(CC)c2C)n3C)C1 [Compound 2-68, 6-({(3S)-1-[(5-ethylisoxazol-4-yl)carbonyl]pyrrolidin-3-yl}oxy)-8-(1-ethyl-5-methyl-1H-pyrazol-4-yl)-9-methyl-9H-purine] | >10
CCn1c(-c2ccc(OC)nc2)nc2c(O[C@H]3CCN(C(=O)C4CC(F)(F)C4)C3)ncnc21 [Compound 3-51, 6-({(3S)-1-[(3,3-difluorocyclobutyl)carbonyl]pyr-rolidin-3-yl}oxy)-9-ethyl-8-(6-methoxypyridin-3-yl)-9H-purine] | >10
CCn1ncc(-c2nc3c(O[C@H]4CCN(C(=O)CC#N)C4)ncnc3n2C)c1C [Compound 2-15, 3-[(3S)-3-{[8-(1-ethyl-5-methyl-1H-pyrazol-4-yl)-9-methyl-9H-purin-6-yl]oxy}pyrrolidin-1-yl]-3-oxopropanenitrile] | >10
CCN(C)C(=O)N1CC[C@H](Oc2ncnc3c2nc(-c2cnc(C)nc2)n3CC)C1 [Compound 5-9, (3S)-N-ethyl-3-{[9-ethyl-8-(2-methylpyrimidin-5-yl)-9H-purin-6-yl]oxy}-N-methylpyrrolidine-1-carboxamide] | >10
CCn1c(-c2cnc(OC)c(C(F)(F)F)c2)nc2c(O[C@H]3CCN(C(=O)C4CC4)C3)ncnc21 [Compound 3-26, 5-{[(3S)-1-(cyclopropylcarbonyl)pyrrolidin-3-yl]oxy}-9-ethyl-8-[6-methoxy-5-(trifluoromethyl)pyridin-3-yl]-9H-purine] | >10
CCn1c(-c2cnc(C)nc2)nc2c(O[C@H]3CCN(C(=O)N4CCCCC4)C3)ncnc21 [Compound 5-23, 9-ethyl-8-(2-methylpyrimidin-5-yl)-6-{[(3S)-1-(piperidin-1-ylcarbonyl)pyrrolidin-3-yl]oxy}-9H-purine] | >10
CCn1ncc(-c2nc3c(OC4CCN(C(=O)C5CCCCC5)C4)ncnc3n2C)c1C (stereo not shown) [Compound 2-4, 6-{[1-(cyclohexylcarbonyl)pyrrolidin-3-yl]oxy}-8-(1-ethyl-5-methyl-1H-pyrazol-4-yl)-9-methyl-9H-purine] | >10
CCn1ncc(C(=O)N2CC[C@H](Oc3ncnc4c3nc(-c3cnn(CC)c3C)n4C)C2)c1C [Compound 2-63, 8-(1-ethyl-5-methyl-1H-pyrazol-4-yl)-6-({(3S)-1-[(1-ethyl-5-mcthyl-1H-pyrazol-4-yl)carbonyl]pyrrolidin-3-yl}oxy)-9-methyl-9H-purine] | 10
CCn1ncc(-c2nc3c(O[C@H]4CCN(C(=O)C(C)C)C4)ncnc3n2C)c1C [Compound 2-91, (S)-1-(3-((8-(1-ethyl-5-methyl-1H-pyrazol-4-yl)-9-methyl-9H-purin-6-yl)oxy)pyrrolidin-1-yl)-2-methylpropan-1-one] | >10
Cc1n[nH]c2ncc(-c3nc4c(O[C@H]5CCN(C(=O)OC(C)(C)C)C5)ncnc4n3C)cc12 [Compound 1-33, (S)-tert-butyl 3-((9-methyl-8-(3-methyl-1H-pyrazolo[3,4-b]pyridin-5-yl)-9H-purin-6-yl)oxy}pyrrolidine-1-carboxylate] | >10
CCn1ncc(-c2nc3c(O[C@H]4CCN(c5ncnc6c5cnn6C)C4)ncnc3n2C)c1C [Compound 7-14, 4-[(3S)-3-{[8-(1-ethyl-5-methyl-1H-pyrazol-4-yl)-9-methyl-9H-purin-6-yl]oxy}pyrrolidin-1-yl]-1-methyl-1H-pyrazolo[3,4-d]pyrimidine] | >10
